The subject of test [1] is rhesus monkey NPY Y4 receptor (SEQ ID NO: 1). In words: Receptor binding assay using rhesus monkey Y4 receptor-expressing COS-7 cell membrane fractions (SEQ ID NO: 1), inhibition of [125I]human PP binding. The note with it: expression vector SEQ ID NO: 1; COS-7 membrane fraction; 59 pM [125I]human PP; read-out: IC50 against specific [125I]human PP binding. The method, then: (§1) COS-7 cells were transfected with a pEF1/[…]B plasmid vector containing the nucleotide sequence of SEQ ID NO: 1 or 3, using LipofectAmine Plus (Invitrogen). After 48 hours, the cells were recovered, and disrupted in 10 mM MOPS buffer (pH 7.4) containing 20% sucrose, 154 mM NaCl, 10 mM KCl and 0.8 mM CaCl2, using a Polytron homogenizer (Kinematica) while cooling on ice. The obtained homogenate was centrifuged at 1,000×g, 4° C. for 15 minutes, the supernatant was centrifuged at 90,000×g for 50 minutes, and the precipitate was collected. It was then suspended in 5 mM HEPES/Tris buffer (pH 7.4) and then centrifuged again at 90,000×g for 50 minutes, after which the obtained precipitate was collected as the membrane sample. […] After rinsing with 5 mM Tris buffer (pH 7.4) containing 0.3% bovine serum albumin and drying, MicroScint0 (Perkin-Elmer) was added, and a TopCount HTS (Packard) was used to measure the residual radioactivity on the filter.

Test [2] has as its system rhesus monkey NPY Y4 receptor (SEQ ID NO: 3). The test can be described thus: Receptor binding assay using rhesus monkey Y4 receptor-expressing COS-7 cell membrane fractions (SEQ ID NO: 3), inhibition of [125I]human PP binding. The note with it: expression vector SEQ ID NO: 3; COS-7 membrane fraction; 59 pM [125I]human PP; read-out: IC50 against specific [125I]human PP binding. The protocol: as §1

For test [3] the test system is unchanged. In words: [125I]human PP binding assay using COS-7 cells expressing rhesus monkey Y4 receptor (SEQ ID NO: 3). The following applies: COS-7 cells transfected with SEQ ID NO: 3; 50 pM [125I]human PP; non-specific binding with 1 μM human PP. The method, then: (§2) COS-7 cells (American Type Culture Collection) were seeded in a 24-well culturing plate at a density of 5×10^4 cells/well, and after 24 hours, they were transfected with a pEF1/V5-HisB plasmid vector containing the nucleotide sequence of SEQ ID NO: 1 or 3 obtained in Example 1 or the same vector without the insert (mock), using Efectene (Qiagen). After culturing for 48 hours, incubation was performed at 37° C. for 30 minutes in 240 μl/well of reaction buffer (Hanks' balanced salt solution containing 20 mM HEPES and 0.2% bovine serum albumin; pH 7.4) to which 50 pM [^125I]human PP (Perkin-Elmer) had been added. After rinsing with ice-cooled reaction buffer, the cells were lysed and recovered with 2M NaOH and the radioactivity was measured with a γ-counter (Packard, Cobra).
(§3) Non-specific binding was also measured by adding 1 μM human PP to the reaction solution.

For test [4], the system named is rhesus monkey NPY Y4 receptor (SEQ ID NO: 1). The test can be described thus: [125I]human PP binding assay using COS-7 cells expressing rhesus monkey Y4 receptor (SEQ ID NO: 1). The following applies: COS-7 cells transfected with SEQ ID NO: 1; 50 pM [125I]human PP; non-specific binding with 1 μM human PP. The protocol:
as §2, §3

Sequence of rhesus monkey NPY Y4 receptor (SEQ ID NO: 3) (as listed by the source): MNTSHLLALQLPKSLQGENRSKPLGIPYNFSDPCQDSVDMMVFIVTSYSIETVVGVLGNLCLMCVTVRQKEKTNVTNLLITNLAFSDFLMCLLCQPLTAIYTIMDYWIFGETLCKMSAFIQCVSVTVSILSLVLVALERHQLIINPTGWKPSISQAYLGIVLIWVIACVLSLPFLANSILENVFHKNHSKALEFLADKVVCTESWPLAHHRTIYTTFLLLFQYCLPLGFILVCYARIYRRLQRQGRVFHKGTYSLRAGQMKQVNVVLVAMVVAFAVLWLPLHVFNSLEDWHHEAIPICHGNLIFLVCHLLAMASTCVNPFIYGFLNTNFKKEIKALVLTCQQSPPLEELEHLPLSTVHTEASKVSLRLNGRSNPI
Sequence of rhesus monkey NPY Y4 receptor (SEQ ID NO: 1) (as listed by the source): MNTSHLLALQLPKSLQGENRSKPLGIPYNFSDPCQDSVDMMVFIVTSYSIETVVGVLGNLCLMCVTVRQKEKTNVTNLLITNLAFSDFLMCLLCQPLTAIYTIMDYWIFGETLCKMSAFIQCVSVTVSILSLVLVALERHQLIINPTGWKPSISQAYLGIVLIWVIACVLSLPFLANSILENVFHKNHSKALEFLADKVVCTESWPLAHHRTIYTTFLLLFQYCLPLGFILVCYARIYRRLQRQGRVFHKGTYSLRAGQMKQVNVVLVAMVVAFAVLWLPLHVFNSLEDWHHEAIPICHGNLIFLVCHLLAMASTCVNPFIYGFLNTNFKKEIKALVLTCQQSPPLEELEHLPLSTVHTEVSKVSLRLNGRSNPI

On to Neuropeptide-Y [Human NPY], for which the results for the IC50 in test [1] and in test [2] were 100 nM and 97 nM, respectively.

Consider “[125I]human PP: 125I-labelled human PP radioligand (Perkin-Elmer)”, for which the figures for the Specific binding in test [3] and in test [4] were 1394 cpm and 1238 cpm, respectively.

A word on the IC50: it is the concentration needed to halve the response being measured.

For the origin of these results see US20070083037A1, “Monkey npy y4 receptor and method of evaluating compound” (priority 2003, published 2007).
